Assay results published in the supplement of paper PMC4932681.

Columns and labels:
[1] = system: T-47D; experiment: relative IC50 (midpoint of fitted logistic curve, plateau may be below 50% inhibition; CellTiter-Glo viability); higher = less potent; conditions: 72 h
Experimental: (§1)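 FIMM FO2B library drugs were plated at 5 concentrations spanning a 10,000-fold range in 384-well plates. Cells were incubated for 72 h at 37 °C and viability was read by CellTiter-Glo, normalised to DMSO (0% inhibition) and 100 µM benzethonium chloride (100% inhibition). IC50 values come from logistic dose-response fits (Breeze pipeline). Tamoxifen-resistant lines and the 'in 1µM tamoxifen' parental arms were tested in medium with 1 µM 4-OH-tamoxifen.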

[2] = system: BT-474; experiment: as above; conditions: 72 h
Experimental: as §1

[3] = system: T-47D Tam1; experiment: as above; conditions: 4-OH-tamoxifen in medium 1 µM; 72 h
Experimental: as §1

[4] = system: BT-474 Tam2; experiment: as above; conditions: 4-OH-tamoxifen in medium 1 µM; 72 h
Experimental: as §1

[5] = system: BT-474 Tam1; experiment: as above; conditions: 4-OH-tamoxifen in medium 1 µM; 72 h
Experimental: as §1

[6] = system: MCF-7; experiment: as above; conditions: 72 h
Experimental: as §1

[7] = system: ZR-75-1 Tam1; experiment: as above; conditions: 4-OH-tamoxifen in medium 1 µM; 72 h
Experimental: as §1

[8] = system: MCF-7 Tam1; experiment: as above; conditions: 4-OH-tamoxifen in medium 1 µM; 72 h
Experimental: as §1

[9] = system: ZR-75-1 Tam2; experiment: as above; conditions: 4-OH-tamoxifen in medium 1 µM; 72 h
Experimental: as §1

[10] = system: ZR-75-1; experiment: as above; conditions: 72 h
Experimental: as §1

[11] = system: T-47D; experiment: drug sensitivity score (DSS) (DSS (dimensionless)); higher = more sensitive; extreme values may be limits of the assay; conditions: 72 h
Experimental: (§2)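 FIMM FO2B library drugs were tested at 5 concentrations (10,000-fold range) for 72 h, with CellTiter-Glo viability normalised to DMSO and benzethonium chloride controls. The Drug Sensitivity Score (DSS) is computed from the fitted logistic dose-response curve (area-based; 0 = inactive). Resistant lines and the 'in 1µM tamoxifen' arms were tested in 1 µM 4-OH-tamoxifen.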

[12] = system: BT-474; experiment: as above; conditions: 72 h
Experimental: as §2

[13] = system: T-47D Tam1; experiment: as above; conditions: 4-OH-tamoxifen in medium 1 µM; 72 h
Experimental: as §2

[14] = system: T-47D Tam2; experiment: as above; conditions: 4-OH-tamoxifen in medium 1 µM; 72 h
Experimental: as §2

[15] = system: BT-474 Tam2; experiment: as above; conditions: 4-OH-tamoxifen in medium 1 µM; 72 h
Experimental: as §2

[16] = system: BT-474 Tam1; experiment: as above; conditions: 4-OH-tamoxifen in medium 1 µM; 72 h
Experimental: as §2

[17] = system: MCF-7; experiment: as above; conditions: 72 h
Experimental: as §2

[18] = system: ZR-75-1 Tam1; experiment: as above; conditions: 4-OH-tamoxifen in medium 1 µM; 72 h
Experimental: as §2

[19] = system: MCF-7 Tam1; experiment: as above; conditions: 4-OH-tamoxifen in medium 1 µM; 72 h
Experimental: as §2

[20] = system: ZR-75-1 Tam2; experiment: as above; conditions: 4-OH-tamoxifen in medium 1 µM; 72 h
Experimental: as §2

[21] = system: ZR-75-1; experiment: as above; conditions: 72 h
Experimental: as §2

| SMILES | relative IC50 ([1]; 4-OH-tamoxifen in medium 0 µM) | relative IC50 ([1]; 4-OH-tamoxifen in medium 1 µM) | relative IC50 ([2]; 4-OH-tamoxifen in medium 0 µM) | relative IC50 ([2]; 4-OH-tamoxifen in medium 1 µM) | relative IC50 [3] | relative IC50 [4] | relative IC50 [5] | relative IC50 ([6]; 4-OH-tamoxifen in medium 0 µM) | relative IC50 ([6]; 4-OH-tamoxifen in medium 1 µM) | relative IC50 [8] | relative IC50 [7] | relative IC50 [9] | relative IC50 ([10]; 4-OH-tamoxifen in medium 0 µM) | relative IC50 ([10]; 4-OH-tamoxifen in medium 1 µM) | drug sensitivity score ([11]; 4-OH-tamoxifen in medium 0 µM) | drug sensitivity score ([11]; 4-OH-tamoxifen in medium 1 µM) | drug sensitivity score ([12]; 4-OH-tamoxifen in medium 0 µM) | drug sensitivity score ([12]; 4-OH-tamoxifen in medium 1 µM) | drug sensitivity score [13] | drug sensitivity score [14] | drug sensitivity score [15] | drug sensitivity score [16] | drug sensitivity score ([17]; 4-OH-tamoxifen in medium 0 µM) | drug sensitivity score ([17]; 4-OH-tamoxifen in medium 1 µM) | drug sensitivity score [18] | drug sensitivity score [19] | drug sensitivity score [20] | drug sensitivity score ([21]; 4-OH-tamoxifen in medium 0 µM) | drug sensitivity score ([21]; 4-OH-tamoxifen in medium 1 µM) |
| --- | --- | --- | --- | --- | --- | --- | --- | --- | --- | --- | --- | --- | --- | --- | --- | --- | --- | --- | --- | --- | --- | --- | --- | --- | --- | --- | --- | --- | --- |
| CC(C)C[C@H](NC(=O)[C@@H](COC(C)(C)C)NC(=O)[C@H](Cc1ccc(O)cc1)NC(=O)[C@H](CO)NC(=O)[C@H](Cc1c[nH]c2ccccc12)NC(=O)[C@H](Cc1cnc[nH]1)NC(=O)[C@@H]1CCC(=O)N1)C(=O)N[C@@H](CCCNC(=N)N)C(=O)N1CCC[C@H]1C(=O)NNC(N)=O [Goserelin acetate] | > 10 µM | > 10 µM | > 10 µM | > 10 µM | > 10 µM | > 10 µM | > 10 µM | > 10 µM | > 10 µM | > 10 µM | > 10 µM | > 10 µM | > 10 µM | > 10 µM | 0 | 0 | 0 | 0 | 0 | 0.105 | 0 | 0 | 0 | 0 | 0 | 0 | 0 | 0 | 0 |
| O=C(c1cc(Cc2n[nH]c(=O)c3ccccc23)ccc1F)N1CCN(C(=O)C2CC2)CC1 [Olaparib] |  | > 10 µM | > 10 µM | > 10 µM | > 10 µM | > 10 µM |  | > 10 µM |  | > 10 µM | > 10 µM | > 10 µM | > 10 µM | > 10 µM | 0 | 0 | 0 | 0 | 0 | 0.0505 | 0 | 0.0009 | 0 | 0.285 | 0 | 0 | 0 | 0 | 0 |
| C=C1C[C@@H]2[C@H](CC[C@]3(C)C(=O)CC[C@@H]23)[C@@]2(C)C=CC(=O)C=C12 [Exemestane] | > 10 µM | > 10 µM | > 10 µM | > 10 µM | > 10 µM | > 10 µM | > 10 µM |  |  | > 10 µM | > 10 µM | > 10 µM | > 10 µM | > 10 µM | 0 | 0 | 0 | 0 | 0 | 0.965 | 0 | 0 | 1.3 | 0 | 0 | 0 | 0 | 0 | 0 |
| CC[C@@]1(O)C(=O)OCc2c1cc1n(c2=O)Cc2cc3c(CN(C)C)c(O)ccc3nc2-1 [Topotecan] | 0.0779 µM | > 1 µM | > 1 µM | > 1 µM | 0.1 µM | > 1 µM | > 1 µM |  |  | > 1 µM | 0.156 µM | 0.136 µM | 0.0952 µM | 0.13 µM | 7.46 | 0 | 0 | 0 | 5.31 | 1.16 | 0 | 0 | 0.567 | 2.53 | 3.45 | 0 | 4.55 | 5.48 | 3.54 |

More lines, main results first:

| relative IC50 ([1]; 4-OH-tamoxifen in medium 0 µM) | relative IC50 ([1]; 4-OH-tamoxifen in medium 1 µM) | relative IC50 ([2]; 4-OH-tamoxifen in medium 0 µM) | relative IC50 ([2]; 4-OH-tamoxifen in medium 1 µM) | relative IC50 [3] | relative IC50 [4] | relative IC50 [5] | relative IC50 ([6]; 4-OH-tamoxifen in medium 0 µM) | relative IC50 ([6]; 4-OH-tamoxifen in medium 1 µM) | relative IC50 [8] | SMILES | relative IC50 [7] | relative IC50 [9] | relative IC50 ([10]; 4-OH-tamoxifen in medium 0 µM) | relative IC50 ([10]; 4-OH-tamoxifen in medium 1 µM) | drug sensitivity score ([11]; 4-OH-tamoxifen in medium 0 µM) | drug sensitivity score ([11]; 4-OH-tamoxifen in medium 1 µM) | drug sensitivity score ([12]; 4-OH-tamoxifen in medium 0 µM) | drug sensitivity score ([12]; 4-OH-tamoxifen in medium 1 µM) | drug sensitivity score [13] | drug sensitivity score [14] | drug sensitivity score [15] | drug sensitivity score [16] | drug sensitivity score ([17]; 4-OH-tamoxifen in medium 0 µM) | drug sensitivity score ([17]; 4-OH-tamoxifen in medium 1 µM) | drug sensitivity score [18] | drug sensitivity score [19] | drug sensitivity score [20] | drug sensitivity score ([21]; 4-OH-tamoxifen in medium 0 µM) | drug sensitivity score ([21]; 4-OH-tamoxifen in medium 1 µM) |
| --- | --- | --- | --- | --- | --- | --- | --- | --- | --- | --- | --- | --- | --- | --- | --- | --- | --- | --- | --- | --- | --- | --- | --- | --- | --- | --- | --- | --- | --- |
| > 10 µM | > 10 µM |  | 1.61 µM | 0.326 µM | 0.723 µM | 1.15 µM |  |  | > 10 µM | CC1(C)CCC(c2ccc(Cl)cc2)=C(CN2CCN(c3ccc(C(=O)NS(=O)(=O)c4ccc(N[C@H](CCN5CCOCC5)CSc5ccccc5)c(S(=O)(=O)C(F)(F)F)c4)cc3)CC2)C1 [Navitoclax (ABT-263)] | > 10 µM | > 10 µM | > 10 µM | > 10 µM | 0 | 0 | 0 | 4.26 | 14.1 | 1.65 | 3.9 | 2.79 | 1.6 | 0.949 | 0 | 0 | 0 | 0 | 0 |
| 1.24 µM | > 10 µM | > 10 µM | > 10 µM | 1.73 µM | > 10 µM | > 10 µM |  |  | > 10 µM | CCc1c2c(nc3ccc(OC(=O)N4CCC(N5CCCCC5)CC4)cc13)-c1cc3c(c(=O)n1C2)COC(=O)[C@]3(O)CC [Irinotecan] | 1.39 µM | 1.59 µM | 1.71 µM |  | 4.39 | 0 | 0 | 0 | 2.72 | 0.581 | 0 | 0 | 1.56 | 1.5 | 3.21 | 0 | 3.94 | 3.43 | 1.34 |
|  | > 10 µM | 2.15 µM | 1.29 µM | 0.504 µM | 1.35 µM | 1.17 µM |  |  | > 10 µM | CN1CCN(CCOc2cc(OC3CCOCC3)c3c(Nc4c(Cl)ccc5c4OCO5)ncnc3c2)CC1 [Saracatinib] | > 10 µM | > 10 µM | > 10 µM | > 10 µM | 1.32 | 0 | 3.72 | 9.8 | 5.37 | 3.11 | 10.1 | 10.8 | 2.15 | 0.814 | 0 | 0 | 0 | 0 | 0 |
